Changes are numbered by the printed parent chain. Read-outs that look alike come from different tables or passages of the source.
Tests used:
[1] = tested on: MV-4-11; assay: Proliferation assay (resazurin/MTT), MV-4-11; type: cell-based; details: Homo sapiens, MV4-11, read-out: 72 h Growth inhibition GI50, MV-4-11 cells
[2] = target: CDK2E1 (Homo sapiens, UniProt P24941); details: 1 µM
[3] = target: CDK1B (Homo sapiens, UniProt P06493)
[4] = target: CDK7HMAT1 (Homo sapiens, UniProt P50613); details: 10 µM;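 further: kinase activity measured with an ADP-Glo luminescent kinase assay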
Description: (§1) Inhibition of FLT3(WT), FLT3(ITD) and FLT3(D835Y) and CDKs were determined using ADP Glo Kinase assays (Promega Corporation, Madison, WI, USA). […] The kinase reactions are run for an optimised time period (FLT3-WT: 120 min, FLT3-ITD: 80 min, FLT3-D835Y: 100 min) at room temperature and then the reaction was stopped by adding 5 μL of ADP Glo reagent. […] Positive and negative controls were performed in 0.5% DMSO in the presence and absence of each FLT3 kinase, respectively. […] Half-maximal inhibition (IC50) values were calculated using a 4-parameter logistic non-linear regression model with Graphpad prism (Version 6.0). Apparent inhibition constants (Ki) values were calculated from Km (ATP) and IC50 values for the respective kinases.

[5] = target: CDK6/D3 (Homo sapiens, UniProt Q00534); assay: ADP Glo kinase assay, CDK6/D3; type: biochemical; details: CDK6D3; for remaining activity at 10 µM: compound at 10 μM, read-out: residual enzymatic activity (%) at 10 μM; for remaining activity at 1 µM: compound at 1 μM (values marked *), read-out: residual enzymatic activity (%) at 1 μM*
Description: (§2) Inhibition of FLT3(WT), FLT3(ITD) and FLT3(D835Y) and CDKs were determined using ADP Glo Kinase assays (Promega Corporation, Madison, WI, USA). […] Similarly, kinase reaction for CDK4/D1 and CDK6/D3 was performed with reaction buffer (40 nM Tris base pH 7.5, 20 mM MgCl2, 0.4 mM DTT), 0.1 mg/ml BSA and RB-CTF substrate (retinoblastoma protein1 C-terminal fraction). For CDK9/CyclinT1, the kinase reaction was performed with the standard assay buffer and Kinase Dilution Buffer and RBER-IRStide substrate. Half-maximal inhibition (IC50) values were calculated using a 4-parameter logistic non-linear regression model with Graphpad prism (Version 6.0). Apparent inhibition constants (Ki) values were calculated from Km (ATP) and IC50 values for the respective kinases.

[6] = target: T1, FLT3(ITD) (Homo sapiens, UniProt P36888); assay: ADP Glo kinase assay, FLT3(ITD); type: biochemical; details: apparent Ki calculated from Km (ATP) and IC50, read-out: FLT3 inhibition Ki
T1 sequence (P36888 1-993): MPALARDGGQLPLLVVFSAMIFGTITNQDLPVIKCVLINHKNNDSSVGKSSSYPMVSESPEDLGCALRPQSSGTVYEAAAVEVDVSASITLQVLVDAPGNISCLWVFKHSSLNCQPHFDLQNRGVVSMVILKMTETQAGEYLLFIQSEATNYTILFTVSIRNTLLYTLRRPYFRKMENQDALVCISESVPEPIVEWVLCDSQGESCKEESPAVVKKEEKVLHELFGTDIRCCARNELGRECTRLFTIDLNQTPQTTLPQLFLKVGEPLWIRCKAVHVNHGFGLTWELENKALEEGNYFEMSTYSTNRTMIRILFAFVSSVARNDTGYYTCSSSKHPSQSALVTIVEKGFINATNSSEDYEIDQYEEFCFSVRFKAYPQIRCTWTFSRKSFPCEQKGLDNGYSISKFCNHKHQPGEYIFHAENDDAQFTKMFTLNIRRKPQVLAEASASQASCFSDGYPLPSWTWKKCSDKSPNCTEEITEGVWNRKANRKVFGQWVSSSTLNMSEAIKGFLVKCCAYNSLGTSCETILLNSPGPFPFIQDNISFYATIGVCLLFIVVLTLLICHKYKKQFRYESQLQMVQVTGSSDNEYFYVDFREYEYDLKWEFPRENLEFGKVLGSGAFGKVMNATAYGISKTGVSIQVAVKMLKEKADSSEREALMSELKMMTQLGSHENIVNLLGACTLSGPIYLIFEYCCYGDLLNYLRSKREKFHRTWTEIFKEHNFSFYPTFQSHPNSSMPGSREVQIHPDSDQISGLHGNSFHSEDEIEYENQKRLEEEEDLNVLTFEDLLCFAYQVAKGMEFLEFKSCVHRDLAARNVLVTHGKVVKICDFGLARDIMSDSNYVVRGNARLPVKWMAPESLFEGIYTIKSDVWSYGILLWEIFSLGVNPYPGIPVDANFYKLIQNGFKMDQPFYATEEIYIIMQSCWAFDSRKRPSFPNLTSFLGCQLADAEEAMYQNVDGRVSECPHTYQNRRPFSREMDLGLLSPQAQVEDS

[7] = target: CDK9/CyclinT1 (Homo sapiens, UniProt P50750); assay: ADP Glo kinase assay, CDK9/CyclinT1; type: biochemical; details: CDK9T1; for remaining activity at 10 µM: compound at 10 μM, read-out: residual enzymatic activity (%) at 10 μM
[8] = target: CDK4/D1 (Homo sapiens, UniProt P11802); assay: ADP Glo kinase assay, CDK4/D1; type: biochemical; details: CDK4D1; for remaining activity at 10 µM: compound at 10 μM, read-out: residual enzymatic activity (%) at 10 μM; for remaining activity at 1 µM: compound at 1 μM (values marked *), read-out: residual enzymatic activity (%) at 1 μM*
Description: as §2

[9] = target: T2, FLT3(D835Y) (Homo sapiens, UniProt P36888, D835Y); assay: ADP Glo kinase assay, FLT3(D835Y); type: biochemical; details: apparent Ki calculated from Km (ATP) and IC50, read-out: FLT3 inhibition Ki
T2 sequence (P36888 27-993 D835Y): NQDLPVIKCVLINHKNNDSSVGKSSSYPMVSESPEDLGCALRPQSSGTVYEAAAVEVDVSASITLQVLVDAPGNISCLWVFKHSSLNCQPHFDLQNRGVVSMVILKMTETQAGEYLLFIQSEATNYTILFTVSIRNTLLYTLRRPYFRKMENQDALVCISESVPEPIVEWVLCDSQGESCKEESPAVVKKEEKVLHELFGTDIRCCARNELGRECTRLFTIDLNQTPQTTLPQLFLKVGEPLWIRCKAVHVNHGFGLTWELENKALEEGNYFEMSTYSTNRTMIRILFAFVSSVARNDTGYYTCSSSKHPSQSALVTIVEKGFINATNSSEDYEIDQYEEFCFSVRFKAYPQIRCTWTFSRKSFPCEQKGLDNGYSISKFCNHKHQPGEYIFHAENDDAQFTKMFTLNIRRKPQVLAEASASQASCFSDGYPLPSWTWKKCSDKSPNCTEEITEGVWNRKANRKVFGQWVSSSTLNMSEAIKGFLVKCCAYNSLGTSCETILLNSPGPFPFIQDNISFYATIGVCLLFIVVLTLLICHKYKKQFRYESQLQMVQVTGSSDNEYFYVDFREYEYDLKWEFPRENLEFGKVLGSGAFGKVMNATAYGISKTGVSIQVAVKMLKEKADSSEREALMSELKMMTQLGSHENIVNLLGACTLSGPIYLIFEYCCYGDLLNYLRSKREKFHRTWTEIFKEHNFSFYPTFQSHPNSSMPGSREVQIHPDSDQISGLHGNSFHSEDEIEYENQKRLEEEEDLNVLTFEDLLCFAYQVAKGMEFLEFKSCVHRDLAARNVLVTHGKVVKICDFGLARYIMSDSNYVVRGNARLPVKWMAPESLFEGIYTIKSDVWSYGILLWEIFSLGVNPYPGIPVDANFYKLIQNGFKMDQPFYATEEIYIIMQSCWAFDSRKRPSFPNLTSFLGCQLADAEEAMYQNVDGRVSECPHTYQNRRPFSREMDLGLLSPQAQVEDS
Description: as §1

[10] = target: T3, FLT3(WT) (Homo sapiens, UniProt P36888); assay: ADP Glo kinase assay, FLT3(WT); type: biochemical; details: for remaining activity at 1 µM: compound at 1 μM, read-out: residual enzymatic activity (%) at 1 μM; for Ki: apparent Ki calculated from Km (ATP) and IC50, read-out: FLT3 inhibition Ki
T3 sequence (P36888 27-993): T2 sequence (P36888 27-993 D835Y) with Y809D
Description: as §1

[11] = tested on: U937; assay: Proliferation assay (resazurin/MTT), U937; type: cell-based; details: Homo sapiens, U-937, read-out: 72 h Growth inhibition GI50, U937 cells

CDK1B, sequence (P06493 whole entry): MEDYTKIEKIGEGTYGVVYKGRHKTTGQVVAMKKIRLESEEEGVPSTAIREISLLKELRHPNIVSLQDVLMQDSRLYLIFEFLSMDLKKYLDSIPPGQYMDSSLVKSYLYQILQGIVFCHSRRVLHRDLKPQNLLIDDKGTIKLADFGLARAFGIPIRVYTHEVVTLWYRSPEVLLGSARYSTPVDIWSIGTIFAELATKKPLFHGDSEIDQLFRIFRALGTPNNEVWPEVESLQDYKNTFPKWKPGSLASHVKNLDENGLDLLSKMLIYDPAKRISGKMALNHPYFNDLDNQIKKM
CDK1B, sequence (P14635 whole entry partner): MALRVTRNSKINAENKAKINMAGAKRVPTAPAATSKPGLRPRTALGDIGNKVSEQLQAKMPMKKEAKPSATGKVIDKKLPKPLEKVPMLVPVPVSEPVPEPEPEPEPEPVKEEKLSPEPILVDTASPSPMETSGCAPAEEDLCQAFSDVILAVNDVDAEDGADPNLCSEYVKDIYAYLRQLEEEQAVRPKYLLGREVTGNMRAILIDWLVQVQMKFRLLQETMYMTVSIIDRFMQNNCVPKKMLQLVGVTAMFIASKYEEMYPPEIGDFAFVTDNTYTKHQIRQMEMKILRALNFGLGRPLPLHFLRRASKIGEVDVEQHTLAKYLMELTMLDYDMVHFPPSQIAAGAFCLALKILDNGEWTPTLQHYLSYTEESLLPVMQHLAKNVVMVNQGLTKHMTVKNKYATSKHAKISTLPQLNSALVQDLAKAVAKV
CDK9/CyclinT1, sequence (P50750 whole entry, species assumed): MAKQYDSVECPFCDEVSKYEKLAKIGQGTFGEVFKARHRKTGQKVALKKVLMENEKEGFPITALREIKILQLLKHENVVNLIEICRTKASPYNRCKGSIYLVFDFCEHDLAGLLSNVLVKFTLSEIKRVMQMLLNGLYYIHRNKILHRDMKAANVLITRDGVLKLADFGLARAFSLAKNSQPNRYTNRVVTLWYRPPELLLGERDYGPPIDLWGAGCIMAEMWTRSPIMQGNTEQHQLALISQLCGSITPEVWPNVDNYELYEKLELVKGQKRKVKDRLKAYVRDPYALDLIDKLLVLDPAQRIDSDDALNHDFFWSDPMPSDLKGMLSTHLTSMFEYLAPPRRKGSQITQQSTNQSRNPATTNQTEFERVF
CDK9/CyclinT1, sequence (O60563 whole entry partner, species assumed): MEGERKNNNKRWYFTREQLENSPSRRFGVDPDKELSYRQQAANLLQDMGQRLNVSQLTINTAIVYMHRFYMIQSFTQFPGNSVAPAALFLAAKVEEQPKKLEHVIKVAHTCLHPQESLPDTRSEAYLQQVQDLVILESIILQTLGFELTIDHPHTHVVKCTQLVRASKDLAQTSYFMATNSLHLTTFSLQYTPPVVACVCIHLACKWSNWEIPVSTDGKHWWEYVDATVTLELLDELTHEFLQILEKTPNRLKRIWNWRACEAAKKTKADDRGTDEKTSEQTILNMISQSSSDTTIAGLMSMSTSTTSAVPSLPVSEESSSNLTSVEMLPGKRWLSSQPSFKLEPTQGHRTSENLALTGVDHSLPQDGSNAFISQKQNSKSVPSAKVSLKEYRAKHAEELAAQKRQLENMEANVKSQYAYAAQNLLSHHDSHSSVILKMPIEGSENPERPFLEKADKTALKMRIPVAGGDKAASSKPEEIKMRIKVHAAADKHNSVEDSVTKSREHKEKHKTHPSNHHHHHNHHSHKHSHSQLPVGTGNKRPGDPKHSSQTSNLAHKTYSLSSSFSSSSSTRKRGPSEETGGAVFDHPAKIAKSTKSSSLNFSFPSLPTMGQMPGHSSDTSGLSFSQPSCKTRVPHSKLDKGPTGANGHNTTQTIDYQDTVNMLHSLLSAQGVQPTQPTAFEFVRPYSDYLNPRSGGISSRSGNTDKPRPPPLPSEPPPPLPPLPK
CDK7HMAT1, sequence (P50613 whole entry): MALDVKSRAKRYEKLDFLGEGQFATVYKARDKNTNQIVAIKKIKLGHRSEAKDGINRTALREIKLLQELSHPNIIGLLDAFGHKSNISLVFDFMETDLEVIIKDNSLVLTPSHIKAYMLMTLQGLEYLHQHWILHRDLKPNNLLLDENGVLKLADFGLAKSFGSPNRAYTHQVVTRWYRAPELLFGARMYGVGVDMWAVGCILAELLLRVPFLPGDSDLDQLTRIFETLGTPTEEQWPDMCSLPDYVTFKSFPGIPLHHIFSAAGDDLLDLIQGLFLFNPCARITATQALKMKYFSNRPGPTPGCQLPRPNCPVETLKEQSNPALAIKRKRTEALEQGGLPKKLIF
CDK7HMAT1, sequence (P51946 whole entry partner): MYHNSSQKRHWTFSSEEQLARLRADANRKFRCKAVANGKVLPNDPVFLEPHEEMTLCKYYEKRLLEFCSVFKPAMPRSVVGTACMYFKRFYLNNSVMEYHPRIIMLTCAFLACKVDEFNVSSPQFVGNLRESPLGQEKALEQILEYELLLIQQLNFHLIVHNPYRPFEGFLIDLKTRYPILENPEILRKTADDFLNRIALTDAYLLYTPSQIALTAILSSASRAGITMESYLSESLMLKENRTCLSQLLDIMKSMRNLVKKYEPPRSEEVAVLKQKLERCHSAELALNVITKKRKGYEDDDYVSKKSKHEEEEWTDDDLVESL
CDK7HMAT1, sequence (P51948 whole entry partner): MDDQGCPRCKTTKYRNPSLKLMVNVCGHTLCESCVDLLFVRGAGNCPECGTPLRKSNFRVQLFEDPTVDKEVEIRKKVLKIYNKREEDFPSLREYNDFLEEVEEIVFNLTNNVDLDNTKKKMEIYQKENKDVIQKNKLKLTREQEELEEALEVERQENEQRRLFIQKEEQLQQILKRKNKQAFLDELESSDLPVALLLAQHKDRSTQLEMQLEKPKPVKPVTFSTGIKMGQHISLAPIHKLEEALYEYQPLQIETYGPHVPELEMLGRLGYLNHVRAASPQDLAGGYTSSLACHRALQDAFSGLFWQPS
CDK6/D3, sequence (Q00534 whole entry, species assumed): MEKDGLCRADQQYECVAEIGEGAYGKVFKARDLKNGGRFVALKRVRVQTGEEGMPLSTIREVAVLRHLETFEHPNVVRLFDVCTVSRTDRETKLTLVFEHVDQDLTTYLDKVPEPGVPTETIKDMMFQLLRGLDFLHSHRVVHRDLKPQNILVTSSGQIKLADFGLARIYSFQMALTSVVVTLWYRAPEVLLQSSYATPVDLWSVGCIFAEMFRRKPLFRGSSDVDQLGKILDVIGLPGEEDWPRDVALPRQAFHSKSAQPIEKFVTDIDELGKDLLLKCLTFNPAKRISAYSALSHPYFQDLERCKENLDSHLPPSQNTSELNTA
CDK6/D3, sequence (P30281 whole entry partner, species assumed): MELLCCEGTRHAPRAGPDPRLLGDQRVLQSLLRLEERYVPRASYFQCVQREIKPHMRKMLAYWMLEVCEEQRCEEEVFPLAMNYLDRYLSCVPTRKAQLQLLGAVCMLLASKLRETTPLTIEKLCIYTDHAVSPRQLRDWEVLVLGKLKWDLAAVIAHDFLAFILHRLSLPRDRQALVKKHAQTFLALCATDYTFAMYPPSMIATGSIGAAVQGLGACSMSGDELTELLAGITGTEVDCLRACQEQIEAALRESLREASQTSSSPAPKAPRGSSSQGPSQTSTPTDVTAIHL
CDK4/D1, sequence (P11802 whole entry, species assumed): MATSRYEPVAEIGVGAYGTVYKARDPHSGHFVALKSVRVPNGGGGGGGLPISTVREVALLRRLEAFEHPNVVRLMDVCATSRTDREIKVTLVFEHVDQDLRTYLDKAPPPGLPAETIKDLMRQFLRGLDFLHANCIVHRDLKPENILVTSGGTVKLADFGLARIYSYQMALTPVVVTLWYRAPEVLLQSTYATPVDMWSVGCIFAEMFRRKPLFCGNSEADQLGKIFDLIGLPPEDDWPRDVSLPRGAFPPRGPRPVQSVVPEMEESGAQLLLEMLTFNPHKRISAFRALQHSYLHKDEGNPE
CDK4/D1, sequence (P24385 whole entry partner, species assumed): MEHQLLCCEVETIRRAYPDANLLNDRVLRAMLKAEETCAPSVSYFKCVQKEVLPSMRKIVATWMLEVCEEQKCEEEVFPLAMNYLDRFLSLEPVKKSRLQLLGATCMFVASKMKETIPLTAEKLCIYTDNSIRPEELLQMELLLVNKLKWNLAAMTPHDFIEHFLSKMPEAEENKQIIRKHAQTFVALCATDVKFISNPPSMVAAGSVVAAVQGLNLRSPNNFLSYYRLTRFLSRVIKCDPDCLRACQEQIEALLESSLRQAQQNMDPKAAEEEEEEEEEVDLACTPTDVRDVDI

SMILES	GI50 [1]	activity [2]	activity ([3]; 10 µM)	activity [4]	remaining activity at 10 µM [5]	Ki [6]	remaining activity at 10 µM [7]	remaining activity at 10 µM [8]	Ki [9]	remaining activity at 1 µM [10]	GI50 [11]	Ki [10]	activity ([3]; 1 µM)	remaining activity at 1 µM [5]	Ki ([7]; apparent Ki calculated from Km (ATP) and IC50, read-out: CDK inhibition Ki)	remaining activity at 1 µM [8]
c1ccn2c(-c3ccnc(Nc4ccc(N5CCCCC5)cn4)n3)cnc2c1 [Cmpd 5, 4-(Imidazo[1,2-a]pyridin-3-yl)-N-(5-(piperidin-1-yl)pyridin-2-yl)pyrimidin-2-amine]	75 nM	81%	48%	84%	23%	63 nM	28%	53%	45 nM	45%	6200 nM					
CC(=O)N1CCN(c2ccc(Nc3nccc(-c4cnc5ccc(-c6cnc(N7CCN(C)CC7)nc6)cn45)n3)nc2)CC1 [Cmpd 20, 1-(4-(6-((4-(6-(2-(4-Methylpiperazin-1-yl)pyrimidin-5-yl)imidazo[1,2-a]pyridin-3-yl)pyrimidin-2-yl)amino)pyridin-3-yl)piperazin-1-yl)ethan-1-one]	60 nM	83%	100%	66%	77%	127 nM	38%	70%	58 nM	36%	4040 nM					
CN1CCN(c2ccc(Nc3nccc(-c4cnc5ccc(Br)cn45)n3)nc2)CC1 [Cmpd 45, 4-(6-Bromoimidazo[1,2-a]pyridin-3-yl)-N-(5-(4-methylpiperazin-1-yl)pyridin-2-yl)pyrimidin-2-amine]	23 nM	49%				15 nM			13 nM		1960 nM	25 nM	71%	46%	111 nM	34%
Brc1ccc(Nc2nccc(-c3cnc4ccccn34)n2)nc1 [Cmpd 47, N-(5-Bromopyridin-2-yl)-4-(imidazo[1,2-a]pyridin-3-yl)pyrimidin-2-amine]	545 nM	103%				489 nM	62%		> 500 nM		645 nM	> 500 nM	79%	85%		72%

These reach a lower GI50 [1]. Values come first.

GI50 [1]	activity [2]	activity ([3]; 10 µM)	activity [4]	remaining activity at 10 µM [5]	Ki [6]	remaining activity at 10 µM [7]	remaining activity at 10 µM [8]	Ki [9]	remaining activity at 1 µM [10]	GI50 [11]	Ki [10]	activity ([3]; 1 µM)	remaining activity at 1 µM [5]	Ki ([7]; apparent Ki calculated from Km (ATP) and IC50, read-out: CDK inhibition Ki)	remaining activity at 1 µM [8]	SMILES
15 nM	64%	94%	76%	32%	30 nM	28%	46%	9 nM		797 nM	117 nM					CC(=O)N1CCN(c2ccc(Nc3nccc(-c4cnc5ccc(Cl)cn45)n3)nc2)CC1 [Cmpd 9, 1-(4-(6-((4-(6-Chloroimidazo[1,2-a]pyridin-3-yl)pyrimidin-2-yl)amino)pyridin-3-yl)piperazin-1-yl)ethan-1-one]
2 nM	58%	41%	55%	36%	6 nM	23%	34%	10 nM		3130 nM	83 nM					CC(=O)N1CCN(c2ccc(Nc3nccc(-c4cnc5ccc(Br)cn45)n3)nc2)CC1 [Cmpd 10, 1-(4-(6-((4-(6-Bromoimidazo[1,2-a]pyridin-3-yl)pyrimidin-2-yl)amino)pyridin-3-yl)piperazin-1-yl)ethan-1-one]
18 nM	90%	81%	60%	99%	426 nM		78%	48 nM	23%	2920 nM						CC(=O)N1CCN(c2ccc(Nc3nccc(-c4cnc5ccc(-c6cncnc6)cn45)n3)nc2)CC1 [Cmpd 16, 1-(4-(6-((4-(6-(Pyrimidin-5-yl)imidazo[1,2-a]pyridin-3-yl)pyrimidin-2-yl)amino)pyridin-3-yl)piperazin-1-yl)ethan-1-one]

From patent publication US12398132B2, “Derivatives of 4-(imidazo[1,2-a]pyridin-3-yl)-n-(pyridinyl)pyrimidin-2-amine as therapeutic agents” (AUCENTRA THERAPEUTICS PTY LTD, priority 2019, dated 2025)
